Data reported in publication PMC6009984, “Synthesis and biological evaluation of benzenesulphonamide-bearing 1,4,5-trisubstituted-1,2,3-triazoles possessing human carbonic anhydrase I, II, IV, and IX inhibitory activity” (Journal of Enzyme Inhibition and Medicinal Chemistry, 2017).

Assays:
hCA II = hCA II (Homo sapiens, UniProt P00918); test: stopped-flow CO2 hydrase assay, hCA II; conditions: Ki (nM) hCA II, cytosolic isoform; mean from three different assays, stopped flow technique, errors ±5–10%
hCA IV = hCA IV (Homo sapiens, UniProt P22748); test: stopped-flow CO2 hydrase assay, hCA IV
hCA IX = hCA IX (Homo sapiens, UniProt Q16790); test: stopped-flow CO2 hydrase assay, hCA IX
hCA I = hCA I (Homo sapiens, UniProt P00915); test: stopped-flow CO2 hydrase assay, hCA I
Sequence of hCA I (P00915 whole entry): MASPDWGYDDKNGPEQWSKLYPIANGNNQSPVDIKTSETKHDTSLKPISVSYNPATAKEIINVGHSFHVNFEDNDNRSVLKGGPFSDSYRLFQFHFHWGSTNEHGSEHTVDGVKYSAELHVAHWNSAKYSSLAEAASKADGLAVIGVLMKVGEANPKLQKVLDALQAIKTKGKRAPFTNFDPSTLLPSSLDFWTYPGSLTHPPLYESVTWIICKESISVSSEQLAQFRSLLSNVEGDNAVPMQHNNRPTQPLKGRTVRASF

Sequence of hCA IV (P22748 19-312): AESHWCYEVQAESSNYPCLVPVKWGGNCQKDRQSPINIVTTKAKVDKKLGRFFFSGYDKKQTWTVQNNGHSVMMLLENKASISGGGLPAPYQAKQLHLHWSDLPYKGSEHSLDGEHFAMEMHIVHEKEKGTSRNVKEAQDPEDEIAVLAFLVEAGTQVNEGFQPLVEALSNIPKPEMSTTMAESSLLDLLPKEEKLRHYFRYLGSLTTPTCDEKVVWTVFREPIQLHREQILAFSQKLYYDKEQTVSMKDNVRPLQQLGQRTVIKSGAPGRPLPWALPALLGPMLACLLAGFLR

Structure (SMILES) | Ki (hCA II) | Ki (hCA IV) | Ki (hCA IX) | Ki (hCA I) | melting point
CCOC(=O)c1nnn(-c2ccc(S(N)(=O)=O)cc2)c1C [Compound 4a, Ethyl 1-[4-(aminosulfonyl)phenyl]-5-methyl-1H-1,2,3-triazole-4-carboxylate] | 3.2 nM | 3.5 nM | 6.6 nM | 9.1 nM | –
CCOC(=O)c1nnn(-c2ccc(S(N)(=O)=O)cc2)c1-c1ccc(OC)cc1 [Compound 4c, Ethyl 1-[4-(aminosulfonyl)phenyl]-5-(4-methoxyphenyl)-1H-1,2,3-triazole-4-carboxylate] | 6.1 nM | 4.5 nM | 40 nM | 63 nM | 176 °C
NS(=O)(=O)c1ccc(-n2nnc(C(=O)O)c2-c2ccccc2)cc1 [Compound 5b, 1-[4-(Aminosulfonyl)phenyl]-5-phenyl-1H-1,2,3-triazole-4-carboxylic acid] | 97.9 nM | 55.3 nM | 45.9 nM | 646 nM | –
COc1ccc(-c2c(C(=O)O)nnn2-c2ccc(S(N)(=O)=O)cc2)cc1 [Compound 5c, 1-[4-(Aminosulfonyl)phenyl]-5-(4-methoxyphenyl)-1H-1,2,3-triazole-4-carboxylic acid] | 9 nM | 2.4 nM | 42.3 nM | 489 nM | 148 to 150 °C
NS(=O)(=O)c1ccc(-n2nnc(C(=O)O)c2-c2ccc3ccccc3c2)cc1 [Compound 5d, 1-[4-(Aminosulfonyl)phenyl]-5-(2-naphthyl)-1H-1,2,3-triazole-4-carboxylic acid] | 8.9 nM | 4.1 nM | 4.2 nM | 56.2 nM | 198 to 200 °C
NC(=O)c1nnn(-c2ccc(S(N)(=O)=O)cc2)c1-c1ccccc1 [Compound 6b, 1-[4-(Aminosulfonyl)phenyl]-5-phenyl-1H-1,2,3-triazole-4-carboxamide] | 9.1 nM | 1.4 nM | 28.3 nM | 69.1 nM | 210 °C
COc1ccc(-c2c(C(N)=O)nnn2-c2ccc(S(N)(=O)=O)cc2)cc1 [Compound 6c, 1-[4-(Aminosulfonyl)phenyl]-5-(4-methoxyphenyl)-1H-1,2,3-triazole-4-carboxamide] | 6.2 nM | 1.7 nM | 6.8 nM | 874 nM | 280 to 282 °C
Cc1c(C(=O)NN)nnn1-c1ccc(S(N)(=O)=O)cc1 [Compound 7a, 4-[4-(Hydrazinocarbonyl)-5-methyl-1H-1,2,3-triazol-1-yl]benzenesulphonamide] | 7.6 nM | 228 nM | 9.3 nM | 15.1 nM | –
NNC(=O)c1nnn(-c2ccc(S(N)(=O)=O)cc2)c1-c1ccccc1 [Compound 7b, 4-[4-(Hydrazinocarbonyl)-5-phenyl-1H-1,2,3-triazol-1-yl]benzenesulphonamide] | 38 nM | 22.7 nM | 26.1 nM | 73.7 nM | 206 °C
Cc1c(CO)nnn1-c1ccc(S(N)(=O)=O)cc1 [Compound 8a, 4-(4-(Hydroxymethyl)-5-methyl-1H-1,2,3-triazol-1-yl)benzenesulphonamide] | 58.9 nM | 360 nM | 30.6 nM | 354 nM | 184 °C
NS(=O)(=O)c1ccc(-n2nnc(CO)c2-c2ccccc2)cc1 [Compound 8b, 4-(4-(Hydroxymethyl)-5-phenyl-1H-1,2,3-triazol-1-yl)benzenesulphonamide] | 9.4 nM | 8.4 nM | 58.7 nM | 78.9 nM | 174 to 176 °C
NS(=O)(=O)c1ccc(-n2nnc(CO)c2-c2ccc3ccccc3c2)cc1 [Compound 8d, 4-(4-(Hydroxymethyl)-5-(2-naphthyl)-1H-1,2,3-triazol-1-yl)benzenesulphonamide] | 8.1 nM | 1.9 nM | 7.8 nM | 214 nM | 212 to 214 °C

The remaining molecules from weak to strong by Ki (hCA II), led by results:

Ki (hCA II) | Ki (hCA IV) | Ki (hCA IX) | Ki (hCA I) | melting point | Structure (SMILES)
6 nM | 5.1 nM | 9.5 nM | 246 nM | 184 °C | CCOC(=O)c1nnn(-c2ccc(S(N)(=O)=O)cc2)c1-c1ccccc1 [Compound 4b, Ethyl 1-[4-(aminosulfonyl)phenyl]-5-phenyl-1H-1,2,3-triazole-4-carboxylate]
6 nM | 4 nM | 6.7 nM | 772 nM | 278 to 280 °C | NC(=O)c1nnn(-c2ccc(S(N)(=O)=O)cc2)c1-c1ccc2ccccc2c1 [Compound 6d, 1-[4-(Aminosulfonyl)phenyl]-5-(2-naphthyl)-1H-1,2,3-triazole-4-carboxamide]
5.8 nM | 5 nM | 7.1 nM | 68.2 nM | 180 °C | CCOC(=O)c1nnn(-c2ccc(S(N)(=O)=O)cc2)c1-c1ccc2ccccc2c1 [Compound 4d, Ethyl 1-[4-(aminosulfonyl)phenyl]-5-(2-naphthyl)-1H-1,2,3-triazole-4-carboxylate]
5.6 nM | 4 nM | 8.1 nM | 91.2 nM | 170 to 172 °C | COc1ccc(-c2c(C(=O)NN)nnn2-c2ccc(S(N)(=O)=O)cc2)cc1 [Compound 7c, 4-[4-(Hydrazinocarbonyl)-5-(4-methoxyphenyl)-1H-1,2,3-triazol-1-yl]benzenesulphonamide]
4 nM | 1.9 nM | 5.8 nM | 812 nM | 180 to 182 °C | COc1ccc(-c2c(CO)nnn2-c2ccc(S(N)(=O)=O)cc2)cc1 [Compound 8c, 4-(4-(Hydroxymethyl)-5-(4-methoxyphenyl)-1H-1,2,3-triazol-1-yl)benzenesulphonamide]
1.9 nM | 212 nM | 9.5 nM | 8.3 nM | 314 to 316 °C | Cc1c(C(N)=O)nnn1-c1ccc(S(N)(=O)=O)cc1 [Compound 6a, 1-[4-(Aminosulfonyl)phenyl]-5-methyl-1H-1,2,3-triazole-4-carboxamide]
1.6 nM | 269 nM | 8.5 nM | 9.6 nM | 198 °C | Cc1c(C(=O)O)nnn1-c1ccc(S(N)(=O)=O)cc1 [Compound 5a, 1-[4-(Aminosulfonyl)phenyl]-5-methyl-1H-1,2,3-triazole-4-carboxylic acid]
1.6 nM | 2 nM | 7.2 nM | 82.5 nM | 156 °C | NNC(=O)c1nnn(-c2ccc(S(N)(=O)=O)cc2)c1-c1ccc2ccccc2c1 [Compound 7d, 4-[4-(Hydrazinocarbonyl)-5-(2-naphthyl)-1H-1,2,3-triazol-1-yl]benzenesulphonamide]
